Test results as given in PMC9095466 (Nature, 2022).
Several values for one entry are separate records, joined by “and”; a condition that tells them apart may be missing. Identical values can stand only once. Like-named read-outs stand apart in the source and are kept apart here.

Key:
[1] = molecular target: T1, Recombinant human matriptase (Homo sapiens, UniProt Q9Y5Y6); test: Protease selectivity, Ki on recombinant protease; assay type: biochemical; conditions: single experiments N1-N3; Figure 1D; read-out: Individual Ki, Matriptase
T1 construct: made in house
T1 sequence (Q9Y5Y6 1-855): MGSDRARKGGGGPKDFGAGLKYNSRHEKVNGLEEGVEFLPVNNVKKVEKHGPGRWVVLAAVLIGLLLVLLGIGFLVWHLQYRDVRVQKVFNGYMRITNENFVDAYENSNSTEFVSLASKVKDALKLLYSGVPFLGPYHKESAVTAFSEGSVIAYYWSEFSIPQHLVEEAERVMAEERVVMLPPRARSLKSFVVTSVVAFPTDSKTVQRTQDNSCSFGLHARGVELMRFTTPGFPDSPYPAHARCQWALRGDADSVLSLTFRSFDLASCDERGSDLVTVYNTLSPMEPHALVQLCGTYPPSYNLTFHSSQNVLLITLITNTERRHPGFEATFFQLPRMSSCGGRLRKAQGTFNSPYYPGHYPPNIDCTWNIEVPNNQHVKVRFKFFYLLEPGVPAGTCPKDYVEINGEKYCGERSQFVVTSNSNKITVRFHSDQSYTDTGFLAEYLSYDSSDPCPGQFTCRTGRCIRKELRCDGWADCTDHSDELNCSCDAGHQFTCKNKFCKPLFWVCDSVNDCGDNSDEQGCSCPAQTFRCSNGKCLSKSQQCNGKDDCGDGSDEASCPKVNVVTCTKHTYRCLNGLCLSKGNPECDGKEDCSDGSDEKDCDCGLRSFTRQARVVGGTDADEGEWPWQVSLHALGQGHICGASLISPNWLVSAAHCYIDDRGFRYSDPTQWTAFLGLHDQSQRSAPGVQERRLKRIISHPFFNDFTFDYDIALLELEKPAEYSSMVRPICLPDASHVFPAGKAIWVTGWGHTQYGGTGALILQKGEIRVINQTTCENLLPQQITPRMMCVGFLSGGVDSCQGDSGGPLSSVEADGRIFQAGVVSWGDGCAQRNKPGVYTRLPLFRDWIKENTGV

Recombinant human hepsin = molecular target: T2, Recombinant human hepsin (Homo sapiens, UniProt P05981); test: Protease selectivity, Ki on recombinant protease; assay type: biochemical; conditions: single experiments N1-N3; Figure 1D; read-out: Individual Ki, Hepsin
T2 construct: made in house

Recombinant human DESC1 = molecular target: T3, Recombinant human DESC1 (Homo sapiens, UniProt Q9UL52); test: Protease selectivity, Ki on recombinant protease; assay type: biochemical
T3 construct: made in house
T3 sequence (Q9UL52 1-423): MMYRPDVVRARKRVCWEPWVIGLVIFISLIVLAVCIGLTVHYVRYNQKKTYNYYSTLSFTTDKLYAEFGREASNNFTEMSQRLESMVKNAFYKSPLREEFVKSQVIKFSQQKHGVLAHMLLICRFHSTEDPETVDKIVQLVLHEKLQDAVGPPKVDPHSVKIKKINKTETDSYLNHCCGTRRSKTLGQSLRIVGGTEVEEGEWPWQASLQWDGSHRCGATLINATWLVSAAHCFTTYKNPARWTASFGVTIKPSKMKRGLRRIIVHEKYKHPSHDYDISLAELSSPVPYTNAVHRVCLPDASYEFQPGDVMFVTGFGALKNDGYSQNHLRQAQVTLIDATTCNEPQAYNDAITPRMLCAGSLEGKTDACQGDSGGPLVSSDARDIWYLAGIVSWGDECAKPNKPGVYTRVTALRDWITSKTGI

human thrombin = molecular target: T4, human thrombin (Homo sapiens, UniProt P00734); test: Protease selectivity, Ki on protease; assay type: biochemical
T4 construct: purchased MilliporeSigma

Recombinant human furin = molecular target: T5, Recombinant human furin (Homo sapiens, UniProt P09958); test: Protease selectivity, Ki on recombinant protease; assay type: biochemical
T5 construct: purchased Bio-Techne

human cathepsin L = molecular target: T6, human cathepsin L (Homo sapiens, UniProt P07711); test: Protease selectivity, Ki on protease; assay type: biochemical
T6 construct: purchased Bio-Techne

[2] = Cytotoxicity CC50 in Calu-3 lung epithelial cells; assay type: cell-based, human; conditions: human; for viability at 24 h, 3000 µM: Log [inhibitor] -2.52; for viability at 24 h, 1000 µM: Log [inhibitor] -3.00; for viability at 24 h, 300 µM: Log [inhibitor] -3.52; for viability at 24 h, 100 µM: Log [inhibitor] -4.00; for viability at 24 h, 30 µM: Log [inhibitor] -4.52; for viability at 24 h, 10 µM: Log [inhibitor] -5.00; for viability at 24 h, 3 µM: Log [inhibitor] -5.52; for viability at 24 h, 0.3 µM: Log [inhibitor] -6.52; for viability at 24 h, 0.03 µM: Log [inhibitor] -7.52; for viability at 24 h, 0.003 µM: Log [inhibitor] -8.52
Calu-3 cells = test: Cytotoxicity CC50 in Calu-3 lung epithelial cells; assay type: cell-based, human; conditions: single replicates
human TMPRSS2 = human TMPRSS2 (Homo sapiens, UniProt O15393); test: cell-based; conditions: for TMPRSS2 activity (%): Figure 1B, single experiments N1-N3; for inhibition at 0.01 µM: Vero C1008, 10 nM compound, 24 h, vs untreated/vehicle TMPRSS2-expressing Vero E6 cells, read-out: inhibition of TMPRSS2 activity (reduction of substrate proteolysis)
[3] = test system: SARS-CoV-2 lineage B strain (VIDO); test: microbe, parasite or virus in culture; assay type: cell-based
[4] = single experiments N1-N3, Figure 1D, read-out: Individual Ki, Desc1
[5] = single experiments N1-N3, Figure 1D, read-out: Individual Ki, Thrombin
[6] = single experiments N1-N3, Figure 1D, read-out: Individual Ki, Furin
[7] = single experiments N1-N4, Figure 1D, read-out: Individual Ki, Cathepsin L
[8] = Calu-3 cells, read-out: % of Viability, Average (n=2)
[9] = Calu-3 cells, single replicates, read-out: % of Viability
[10] = Calu-3 cells, unit not given for CC50, read-out: CC50
[11] = Figure 2a; two replicates; DMSO control about 91-94
[12] = Figure 2a; two replicates; DMSO control about 93-95
[13] = Severe acute respiratory syndrome coronavirus 2, Calu-3; read-out: inhibition of SARS-CoV-2 infection

T6 sequence (P07711 114-333): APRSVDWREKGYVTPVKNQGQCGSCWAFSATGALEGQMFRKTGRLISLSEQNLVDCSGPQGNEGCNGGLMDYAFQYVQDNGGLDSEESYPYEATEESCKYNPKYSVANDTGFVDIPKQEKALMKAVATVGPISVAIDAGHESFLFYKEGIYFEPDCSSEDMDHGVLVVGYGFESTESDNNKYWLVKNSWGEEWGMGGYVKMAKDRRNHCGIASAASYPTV
T5 sequence (P09958 108-794): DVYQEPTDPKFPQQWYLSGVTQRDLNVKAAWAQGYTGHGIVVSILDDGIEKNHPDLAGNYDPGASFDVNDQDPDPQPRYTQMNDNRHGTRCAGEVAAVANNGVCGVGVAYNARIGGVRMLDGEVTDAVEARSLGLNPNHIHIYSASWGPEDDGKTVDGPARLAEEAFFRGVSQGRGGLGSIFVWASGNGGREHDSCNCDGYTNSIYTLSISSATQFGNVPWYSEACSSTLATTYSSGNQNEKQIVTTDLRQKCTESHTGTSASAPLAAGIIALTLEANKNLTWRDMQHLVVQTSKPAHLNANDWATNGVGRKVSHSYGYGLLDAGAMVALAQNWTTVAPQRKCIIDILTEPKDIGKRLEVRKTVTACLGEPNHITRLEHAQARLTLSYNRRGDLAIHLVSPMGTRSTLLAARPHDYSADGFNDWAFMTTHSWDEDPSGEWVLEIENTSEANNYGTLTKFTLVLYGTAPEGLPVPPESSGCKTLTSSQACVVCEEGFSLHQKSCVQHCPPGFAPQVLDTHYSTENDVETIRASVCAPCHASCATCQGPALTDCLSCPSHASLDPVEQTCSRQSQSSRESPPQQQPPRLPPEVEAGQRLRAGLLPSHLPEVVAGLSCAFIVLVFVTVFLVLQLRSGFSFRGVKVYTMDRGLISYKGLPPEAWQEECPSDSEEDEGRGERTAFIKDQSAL
Sequence of human TMPRSS2 (O15393 whole entry): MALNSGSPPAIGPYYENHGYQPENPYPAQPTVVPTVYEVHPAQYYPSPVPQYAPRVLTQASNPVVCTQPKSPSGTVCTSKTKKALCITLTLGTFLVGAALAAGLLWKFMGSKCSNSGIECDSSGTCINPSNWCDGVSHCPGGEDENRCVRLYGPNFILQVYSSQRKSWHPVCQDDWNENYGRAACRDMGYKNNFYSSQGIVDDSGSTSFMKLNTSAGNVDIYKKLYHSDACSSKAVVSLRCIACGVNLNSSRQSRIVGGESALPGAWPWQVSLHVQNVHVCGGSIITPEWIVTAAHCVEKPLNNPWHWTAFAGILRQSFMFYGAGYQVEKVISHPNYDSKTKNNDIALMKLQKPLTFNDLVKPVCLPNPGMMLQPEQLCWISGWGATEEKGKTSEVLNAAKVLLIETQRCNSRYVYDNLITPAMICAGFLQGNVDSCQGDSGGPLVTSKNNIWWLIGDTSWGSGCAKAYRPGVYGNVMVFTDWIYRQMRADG
T2 sequence (P05981 whole entry): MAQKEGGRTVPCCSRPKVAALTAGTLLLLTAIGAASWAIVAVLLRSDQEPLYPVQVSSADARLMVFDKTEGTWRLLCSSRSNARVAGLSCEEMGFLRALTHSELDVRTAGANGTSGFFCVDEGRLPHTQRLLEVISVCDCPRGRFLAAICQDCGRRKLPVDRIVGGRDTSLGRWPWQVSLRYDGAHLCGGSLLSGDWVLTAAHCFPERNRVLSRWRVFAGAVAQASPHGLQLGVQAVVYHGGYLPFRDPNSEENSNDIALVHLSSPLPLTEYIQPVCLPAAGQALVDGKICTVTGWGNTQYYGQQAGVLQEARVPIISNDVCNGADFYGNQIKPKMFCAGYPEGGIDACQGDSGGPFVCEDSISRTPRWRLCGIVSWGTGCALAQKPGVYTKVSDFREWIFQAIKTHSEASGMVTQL

## N=C(N)NCCCCC(=O)N[C@@H](CCC(N)=O)C(=O)N[C@@H](Cc1ccccc1)C(=O)N[C@@H](CCCNC(=N)N)C(=O)c1nc2ccccc2s1 [Compound N-00130]
[1]
  Ki: 0.154 nM and 0.0954 nM and 0.153 nM
Recombinant human hepsin
  Ki: 0.000221 µM and 0.000323 µM and 0.000606 µM
Recombinant human DESC1; [4]
  Ki: 0.0164 µM and 0.0379 µM and 0.0305 µM
Human thrombin; [5]
  Ki: 7.56 µM and > 10 µM and 7.14 µM
Recombinant human furin; [6]
  Ki: > 10 µM
Human cathepsin L; [7]
  Ki: > 10 µM

## CS(=O)(=O)N[C@@H](CCC(N)=O)C(=O)N[C@@H](Cc1ccccc1)C(=O)N[C@@H](CCCNC(=N)N)C(=O)c1nc2ccccc2s1 [Compound N-00385]
Recombinant human DESC1; [4]
  Ki: 0.0253 µM and 0.0169 µM and 0.0346 µM
Human cathepsin L; [7]
  Ki: 9.7 µM and 9.06 µM and 3.83 µM and 2.57 µM

## CS(=O)(=O)N[C@@H](CCC(N)=O)C(=O)N[C@@H](Cc1ccccc1)C(=O)N[C@@H](CCCNC(=N)N)C(=O)c1nc2ccccc2s1 [Compound N-385]
[2]; [8]
  viability at 24 h, 3000 µM: 52.5%
  viability at 24 h, 1000 µM: 80.5%
  viability at 24 h, 300 µM: 92%
  viability at 24 h, 100 µM: 91%
  viability at 24 h, 30 µM: 87%
  viability at 24 h, 10 µM: 101%
  viability at 24 h, 3 µM: 110%
  viability at 24 h, 0.3 µM: 111%
  viability at 24 h, 0.03 µM: 110%
  viability at 24 h, 0.003 µM: 117%
[2]; [9]
  viability at 24 h, 1000 µM: 74%
  viability at 24 h, 300 µM: 90%
  viability at 24 h, 100 µM: 94%
  viability at 24 h, 30 µM: 90%
  viability at 24 h, 10 µM: 103%
  viability at 24 h, 3 µM: 110%
  viability at 24 h, 0.3 µM: 113%
  viability at 24 h, 0.03 µM: 116%
  viability at 24 h, 0.003 µM: 119%
[2]; [10]
  CC50 at 24 h: 3470 µM
Calu-3 cells; Log [inhibitor] -2.52
  % of Viability: 42% and 63%
Calu-3 cells; Log [inhibitor] -4.00
  % of Viability: 88%
Calu-3 cells; Log [inhibitor] -4.52
  % of Viability: 84%
Calu-3 cells; Log [inhibitor] -5.00
  % of Viability: 99%
Calu-3 cells; Log [inhibitor] -6.52
  % of Viability: 109%
Calu-3 cells; Log [inhibitor] -7.52
  % of Viability: 105%
Calu-3 cells; Log [inhibitor] -8.52
  % of Viability: 115%

## CC(=O)NC(CCC(N)=O)C(=O)NC(Cc1ccccc1)C(=O)NC(CCCNC(=N)N)C(=O)c1nc2ccccc2s1 (stereo not drawn) [Compound N-0386, Ac-QFR-kbt]
Human TMPRSS2
  TMPRSS2 activity (%): 22.2147% and 27.837% and 33.2674%
  inhibition at 0.01 µM: 73%
Recombinant human DESC1; mean ± s.d., max concentration 10 µM, read-out: Ki DESC1
  Ki: 0.0091 ± 0.0019 µM
Human thrombin; mean ± s.d., max concentration 10 µM, read-out: Ki Thrombin
  Ki: > 10 µM
Recombinant human furin; mean ± s.d., max concentration 10 µM, read-out: Ki Furin
  Ki: > 10 µM
Human cathepsin L; mean ± s.d., max concentration 10 µM, read-out: Ki Cathepsin L
  Ki: 7.72 ± 0.142 µM
[3]; [11]
  Nucleocapsid: 0.1229 and 1.4208
[3]; [12]
  dsRNA: 0.2037 and 0
[3]; Severe acute respiratory syndrome coronavirus 2, Calu-3; read-out: SARS-CoV-2 VIDO Nucleocapsid EC50 ± SE
  EC50: 0.0023 ± 0.0017 µM
[3]; [13]
  inhibition at 0.1 µM: > 99%
[3]; log [C] (nM) 0.20412
  Figure 2b dose-response, Mean: 63.391
[3]; log [C] (nM) 0.90309
  Figure 2b dose-response, Mean: 26.1724
[3]; log [C] (nM) 1.60206
  Figure 2b dose-response, Mean: 7.727
[3]; log [C] (nM) 2.30103
  Figure 2b dose-response, Mean: 6.997
[3]; log [C] (nM) 3
  Figure 2b dose-response, Mean: 2.833
[3]; log [C] (nM) -0.49485
  Figure 2b dose-response, Mean: 81.0636
[3]; log [C] (nM) -1.19382
  Figure 2b dose-response, Mean: 95.046
[2]; Calu-3 lung epithelial cells, n = 2, read-out: CC50 in Calu-3 cells
  CC50 at 24 h: 1880 µM

## CC(=O)N[C@@H](CCC(N)=O)C(=O)N[C@@H](Cc1ccccc1)C(=O)N[C@@H](CCCNC(=N)N)C(=O)c1nc2ccccc2s1 [Compound N-00386]
Recombinant human DESC1; [4]
  Ki: 0.0111 µM and 0.00728 µM and 0.00899 µM
Human cathepsin L; [7]
  Ki: 7.72 µM and 7.58 µM and 7.87 µM

## CC(=O)N[C@@H](CCC(N)=O)C(=O)N[C@@H](Cc1ccccc1)C(=O)N[C@@H](CCCNC(=N)N)C(=O)c1nc2ccccc2s1 [Compound N-386]
[2]; [8]
  viability at 24 h, 3000 µM: 46%
  viability at 24 h, 300 µM: 82.5%
  viability at 24 h, 100 µM: 87%
  viability at 24 h, 30 µM: 87.5%
  viability at 24 h, 10 µM: 87%
  viability at 24 h, 3 µM: 95%
  viability at 24 h, 0.3 µM: 100%
  viability at 24 h, 0.03 µM: 104%
  viability at 24 h, 0.003 µM: 102%
[2]; [9]
  viability at 24 h, 3000 µM: 44%
  viability at 24 h, 300 µM: 79%
  viability at 24 h, 100 µM: 86%
  viability at 24 h, 30 µM: 85%
  viability at 24 h, 10 µM: 86%
  viability at 24 h, 3 µM: 95%
  viability at 24 h, 0.3 µM: 98%
  viability at 24 h, 0.03 µM: 101%
  viability at 24 h, 0.003 µM: 102%
[2]; [10]
  CC50 at 24 h: 1880 µM
Calu-3 cells; Log [inhibitor] -2.52
  % of Viability: 48%
Calu-3 cells; Log [inhibitor] -4.00
  % of Viability: 88%
Calu-3 cells; Log [inhibitor] -4.52
  % of Viability: 90%
Calu-3 cells; Log [inhibitor] -5.00
  % of Viability: 88%
Calu-3 cells; Log [inhibitor] -7.52
  % of Viability: 106%

## N=C(N)NCCCCC(=O)N[C@@H](CCC(=O)O)C(=O)N[C@@H](Cc1ccccc1)C(=O)N[C@@H](CCCNC(=N)N)C(=O)c1nc2ccccc2s1 [Compound N-00438]
[1]
  Ki: 1.21 nM and 1.02 nM and 1.09 nM
Recombinant human hepsin
  Ki: 0.000477 µM and 0.000603 µM and 0.000489 µM
Recombinant human DESC1; [4]
  Ki: 0.0343 µM and 0.0276 µM and 0.0298 µM
Human thrombin; [5]
  Ki: > 10 µM
Recombinant human furin; [6]
  Ki: > 10 µM
Human cathepsin L; [7]
  Ki: > 10 µM

## CC(=O)NC(CCC(N)=O)C(=O)NC(CC1CCCCC1)C(=O)NC(CCCNC(=N)N)C(=O)c1nc2ccccc2s1 (stereo not drawn) [Compound N-0676]
Human TMPRSS2
  TMPRSS2 activity (%): 95.6684% and 87.7074% and 100.707%
  inhibition at 0.01 µM: 8%
[3]; Severe acute respiratory syndrome coronavirus 2, Calu-3, read-out: inhibition of SARS-CoV-2 infection
  inhibition at 0.1 µM: < 53%

## N=C(N)NCCCC(NC(=O)C(Cc1ccccc1)NC(=O)C(CCC(N)=O)NC(=N)N)C(=O)c1nc2ccccc2s1 (stereo not drawn) [Compound N-1296]
Human TMPRSS2
  TMPRSS2 activity (%): 93.2686% and 83.3862% and 77.4595%
  inhibition at 0.01 µM: 16%
[3]; [11]
  Nucleocapsid: 31.7311 and 81.7299
[3]; [12]
  dsRNA: 37.1641 and 78.8536
[3]; [13]
  inhibition at 0.1 µM: < 44%
